By pIC50 is commonly meant the IC50 on a negative log10 scale, so that one unit is a factor of ten.

From US12252488B2 (Nimbus Saturn, Inc., priority 2021, dated 2025) come the findings set out here.

Each structure is given as a SMILES string. pIC50: −log10 of the molar value. Some results are limits rather than exact numbers.

In this test the target is T1, HPK1 (Homo sapiens, UniProt Q92918).
T1 construct: purchased Invitrogen
T1 sequence (Q92918 whole entry): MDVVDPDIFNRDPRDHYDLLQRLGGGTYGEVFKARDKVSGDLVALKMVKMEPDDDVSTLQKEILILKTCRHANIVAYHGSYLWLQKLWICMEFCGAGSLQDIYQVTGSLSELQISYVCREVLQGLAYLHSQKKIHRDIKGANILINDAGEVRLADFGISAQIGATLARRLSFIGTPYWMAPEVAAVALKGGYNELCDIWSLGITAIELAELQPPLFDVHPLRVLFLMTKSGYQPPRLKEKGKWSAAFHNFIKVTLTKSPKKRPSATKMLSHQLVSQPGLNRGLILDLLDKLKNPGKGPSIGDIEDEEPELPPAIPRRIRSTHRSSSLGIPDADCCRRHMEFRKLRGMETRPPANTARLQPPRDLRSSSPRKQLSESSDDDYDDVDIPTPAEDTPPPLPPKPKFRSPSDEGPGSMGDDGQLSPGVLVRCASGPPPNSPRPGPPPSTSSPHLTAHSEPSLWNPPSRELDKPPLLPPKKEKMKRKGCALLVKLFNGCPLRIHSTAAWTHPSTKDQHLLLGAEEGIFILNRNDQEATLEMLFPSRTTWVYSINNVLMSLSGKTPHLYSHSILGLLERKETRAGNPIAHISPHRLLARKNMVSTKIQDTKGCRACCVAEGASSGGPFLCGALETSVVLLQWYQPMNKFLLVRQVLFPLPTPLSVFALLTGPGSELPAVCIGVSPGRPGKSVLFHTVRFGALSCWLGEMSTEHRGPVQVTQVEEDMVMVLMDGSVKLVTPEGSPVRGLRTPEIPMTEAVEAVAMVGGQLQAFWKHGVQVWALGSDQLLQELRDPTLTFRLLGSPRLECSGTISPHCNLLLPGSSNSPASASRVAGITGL
The experiment in a line: HPK1 biochemical enzyme assay (microfluidic mobility shift assay). As to conditions: 1000 uM (1 mM) ATP; Caliper mobility shift; 1.5 nM HPK1; 30 min preincubation; read-out: HPK1 1000UMATP caliper IC50. The gist of the method: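 IC50 values, grouped into activity categories, come from 10-point titrations (top final 3 μM) preincubated 30 min with 1.5 nM enzyme and substrate at pH 7.4. ATP (1 mM), substrate (1 μM) and MgCl2 (5 mM) then added; after 60 min at RT, product separated by microfluidic mobility shift.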
Regarding `COc1ccc(F)c(-c2cc(Nc3ccc(N4CCNCC4)cn3)c3c(=O)[nH]ccc3n2)c1F` [I-91, 2-(2,6-difluoro-3-methoxy-phenyl)-4-[(5-piperazin-1-yl-2-pyridyl)amino]-6H-1,6-naphthyridin-5-one], the negative-log IC50 (pIC50) is at least 7.00.

In the case of `CC(C)(C#N)c1ccc(-c2cc(Nc3ccc(N4CCC(O)CC4)cn3)c3c(=O)[nH]ccc3n2)c(F)c1` [I-149, 2-[3-fluoro-4-[4-[[5-(4-hydroxy-1-piperidyl)-2-pyridyl]amino]-5-oxo-6H-1,6-naphthyridin-2-yl]phenyl]-2-methyl-propane-nitrile], the pIC50 was 6.00 to 7.00.

On to `O=c1[nH]ccc2nc(-c3c(F)ccc4c3CCNC4)cc(Nc3cc(C4CCOC4)n[nH]3)c12` (stereo not drawn) [I-265, 2-(6-fluoro-1,2,3,4-tetrahydro-isoquinolin-5-yl)-4-[(3-THF-3-yl-1H-pyrazol-5-yl)amino]-6H-1,6-naphthyridin-5-one], for which the pIC50 is at least 7.00.

As for `COc1cc(-c2cc(Nc3cc(C4CCOC4)[nH]n3)c3c(=O)[nH]ccc3n2)c(F)cc1C(=O)N1CCCCC1` (stereo not drawn) [I-225, 2-[2-fluoro-5-methoxy-4-(piperidine-1-carbonyl)phenyl]-4-[(5-THF-3-yl-1H-pyrazol-3-yl)amino]-6H-1,6-naphthyridin-5-one], the negative logarithm of the IC50 (pIC50) was under 6.00.

As to `O=C(Nc1ccc(-c2cc(Nc3ccc(N4CCC(O)CC4)cn3)c3c(=O)[nH]ccc3n2)c(F)c1)[C@H]1C[C@H]2CC[C@@H]1C2` (single isomer, unassigned) [I-261], the pIC50 was at least 7.00.

With `O=c1[nH]ccc2nc(N3CCC[C@H](O)C3)cc(Nc3ccc(N4CCC(O)CC4)cn3)c12` [I-81, 2-[(3S)-3-hydroxy-1-piperidyl]-4-[[5-(4-hydroxy-1-piperidyl)-2-pyridyl]amino]-6H-1,6-naphthyridin-5-one], the pIC50 was at least 7.00.

On to `CCN(C)C(=O)C(C)(C)c1ccc(Nc2cc(-c3c(F)cccc3F)nc3cc[nH]c(=O)c23)nc1` [I-52, 2-[6-[[2-(2,6-difluoro-phenyl)-5-oxo-6H-1,6-naphthyridin-4-yl]amino]-3-pyridyl]-N-ethyl-N,2-dimethyl-propanamide], for which the pIC50 is 6.00 to 7.00.

Turning to `CCNC(=O)c1ccc(Nc2cc(-c3c(F)cccc3F)nc3nc[nH]c(=O)c23)cc1` [I-14, 4-[[7-(2,6-difluoro-phenyl)-4-oxo-3H-pyrido[2,3-d]pyrimidin-5-yl]amino]-N-ethyl-benzamide], the pIC50 is at least 7.00.

Turning to `O=c1[nH]ccc2nc(N3CCC3)cc(Nc3ccc(N4CCC(O)CC4)cn3)c12` [I-144, 2-(azetidin-1-yl)-4-[[5-(4-hydroxy-1-piperidyl)-2-pyridyl]amino]-6H-1,6-naphthyridin-5-one], the pIC50 is under 6.00.

Turning to `COC1CCN(c2ccc(Nc3cc(-c4ccc(NC(=O)C5CCCCC5)cc4F)nc4cc[nH]c(=O)c34)nc2)CC1` [I-204, N-[3-fluoro-4-[4-[[5-(4-methoxy-1-piperidyl)-2-pyridyl]amino]-5-oxo-6H-1,6-naphthyridin-2-yl]phenyl] cyclohexane carboxamide], the negative logarithm of the IC50 (pIC50) is at least 7.00.

In the case of `Cc1c[nH]c(=O)c2c(Nc3ccc(N4CCC(O)CC4)cn3)cc(C(C)C)nc12` [I-89, 4-[[5-(4-hydroxy-1-piperidyl)-2-pyridyl]amino]-2-isopropyl-8-methyl-6H-1,6-naphthyridin-5-one], the pIC50 is under 6.00.

For the compound `O=c1[nH]ccc2nc(-c3cc(C4CCCN4)ccc3F)cc(Nc3ccc(N4CCC(O)CC4)cn3)c12` (stereo not drawn) [I-243, 2-(2-fluoro-5-pyrrolidin-2-yl-phenyl)-4-[[5-(4-hydroxy-1-piperidyl)-2-pyridyl]amino]-6H-1,6-naphthyridin-5-one], the pIC50 was 6.00 to 7.00.

For `Cc1ccncc1-c1cc(Nc2ccc(N3CCC(O)CC3)cn2)c2c(=O)[nH]ccc2n1` [I-281, 4-[[5-(4-hydroxy-1-piperidyl)-2-pyridyl]amino]-2-(4-methyl-3-pyridyl)-6H-1,6-naphthyridin-5-one], the pIC50 is at least 7.00.

`CC(C)c1cc(Nc2ccc(N3CCN(C)CC3)cn2)c2c(=O)[nH]ccc2n1` [I-57, 2-isopropyl-4-[[5-(4-methyl-piperazin-1-yl)-2-pyridyl]amino]-6H-1,6-naphthyridin-5-one]: the pIC50 is at least 7.00.

As for `CC(C)c1ccc(F)c(-c2cc(Nc3ccc(N4[C@H](C)COC[C@H]4C)cn3)c3c(=O)[nH]ccc3n2)c1` [I-122, 4-[[5-[(3R,5R)-3,5-dimethyl-morpholin-4-yl]-2-pyridyl]amino]-2-(2-fluoro-5-isopropyl-phenyl)-6H-1,6-naphthyridin-5-one], the pIC50 is 6.00 to 7.00.

In the case of `Cc1c(C(=O)N2CCCCC2)ccc(-c2cc(Nc3ccc(N4CCC(O)CC4)cn3)c3c(=O)[nH]ccc3n2)c1F` [I-113, 2-[2-fluoro-3-methyl-4-(piperidine-1-carbonyl)phenyl]-4-[[5-(4-hydroxy-1-piperidyl)-2-pyridyl]amino]-6H-1,6-naphthyridin-5-one], the pIC50 is 6.00 to 7.00.

As for `CC(O)c1cc(Nc2ccc(N3CCC(O)CC3)cn2)c2c(=O)[nH]ccc2n1` (stereo not drawn) [I-37, 2-(1-hydroxyethyl)-4-[[5-(4-hydroxy-1-piperidyl)-2-pyridyl]amino]-6H-1,6-naphthyridin-5-one], the pIC50 was 6.00 to 7.00.

Take `CC(C)c1cc(Nc2ccc(N3CCC(O)CC3)cn2)c2c(=O)[nH]ccc2n1` [I-9, 4-[[5-(4-hydroxy-1-piperidyl)-2-pyridyl]amino]-2-isopropyl-6H-1,6-naphthyridin-5-one]: the pIC50 is 6.00 to 7.00.

Regarding `O=C(Nc1ccc(-c2cc(Nc3ccc(N4CCC(O)CC4)cn3)c3c(=O)[nH]ccc3n2)c(F)c1)C1CCC1` [I-152, N-[3-fluoro-4-[4-[[5-(4-hydroxy-1-piperidyl)-2-pyridyl]amino]-5-oxo-6H-1,6-naphthyridin-2-yl]phenyl] cyclobutane-carboxamide], the pIC50 is 6.00 to 7.00.

In the case of `Cc1cnccc1-c1cc(Nc2ccc(N3CCC(O)CC3)cn2)c2c(=O)[nH]ccc2n1` [I-280, 4-[[5-(4-hydroxy-1-piperidyl)-2-pyridyl]amino]-2-(3-methyl-4-pyridyl)-6H-1,6-naphthyridin-5-one], the pIC50 is under 6.00.

With `CN1CCN(c2ccc(Nc3cc(-c4ccc(C(=O)N5CC6C(C5)C6(F)F)cc4F)nc4cc[nH]c(=O)c34)nc2)CC1` (stereo not drawn) [I-279, 2-[4-(6,6-difluoro-3-azabicyclo [3.1.0]hexane-3-carbonyl)-2-fluoro-phenyl]-4-[[5-(4-methyl-piperazin-1-yl)-2-pyridyl]amino]-6H-1,6-naphthyridin-5-one], the negative-log IC50 (pIC50) is at least 7.00.

Take `O=c1[nH]ccc2cc(-c3c(F)cccc3F)nc(Nc3ccc(N4CCC(O)CC4)cn3)c12` [I-8, 6-(2,6-difluoro-phenyl)-8-[[5-(4-hydroxy-1-piperidyl)-2-pyridyl]amino]-2H-2,7-naphthyridin-1-one]: the pIC50 is 6.00 to 7.00.

In the case of `COc1cc(-c2cc(Nc3ccc(N4CCC(O)CC4)cn3)c3c(=O)[nH]ccc3n2)c(F)cc1C(=O)N1CCCCC1` [I-112, 2-[2-fluoro-5-methoxy-4-(piperidine-1-carbonyl)phenyl]-4-[[5-(4-hydroxy-1-piperidyl)-2-pyridyl]amino]-6H-1,6-naphthyridin-5-one], the negative logarithm of the IC50 (pIC50) was under 6.00.

As to `CN1CCC(c2cc(Nc3ccc(N4CCC(O)CC4)cn3)c3c(=O)[nH]ccc3n2)CC1` [I-75, 4-[[5-(4-hydroxy-1-piperidyl)-2-pyridyl]amino]-2-(1-methyl-4-piperidyl)-6H-1,6-naphthyridin-5-one], the pIC50 was at least 7.00.

As for `CN1CCc2c(ccc(F)c2-c2cc(Nc3ccc(N4CCC(O)CC4)cn3)c3c(=O)[nH]ccc3n2)C1` [I-268, 2-(6-fluoro-2-methyl-3,4-dihydro-1H-isoquinolin-5-yl)-4-[[5-(4-hydroxy-1-piperidyl)-2-pyridyl]amino]-6H-1,6-naphthyridin-5-one], the pIC50 was under 6.00.

For the compound `COc1cc(F)c(-c2cc(Nc3ccc(N4CCC(O)CC4)cn3)c3c(=O)[nH]ccc3n2)cc1C` [I-55, 2-(2-fluoro-4-methoxy-5-methyl-phenyl)-4-[[5-(4-hydroxy-1-piperidyl)-2-pyridyl]amino]-6H-1,6-naphthyridin-5-one], the negative logarithm of the IC50 (pIC50) was 6.00 to 7.00.

For `CC1CCCN(C(=O)c2ccc(-c3cc(Nc4ccc(N5CCC(O)CC5)cn4)c4c(=O)[nH]ccc4n3)c(F)c2)C1` (stereo not drawn) [I-135, 2-[2-fluoro-4-(3-methyl-piperidine-1-carbonyl)phenyl]-4-[[5-(4-hydroxy-1-piperidyl)-2-pyridyl]amino]-6H-1,6-naphthyridin-5-one], the pIC50 was at least 7.00.
